Here are results for nine compounds from patent US12516022B2, “Derivatives of aryl hydrocarbon receptor agonists” (AZORA THERAPEUTICS, INC., priority 2021, dated 2026).

The nature of the data set: Stability of indirubin prodrugs in simulated fluids (FaSSIF, FaSSGF), 24 h at 37° C., UPLC-MS. The data set is classed as physicochemical. The method, then: 10.41 g fasted state simulated intestinal fluid (FaSSIF) buffer concentrate was dissolved in 240.3 g deionized water and 560 mg FaSSIF powder added. The mixture was stirred until complete dissolution observed. The test compound (approx. 1-3 mg) was placed in 5.00 mL of FaSSIF solution. Samples of the solution with the test compound were taken after 24 hours in at 37° C. (oven-controlled temperature).
36.78 g fasted state simulated gastric fluid (FaSSGF) buffer concentrate was dissolved in 961.9 g deionized water and 60 mg FaSSGF powder added. The mixture was stirred until complete dissolution observed. The test compound (approx. 1-3 mg) was placed in 5.00 mL of FaSSGF solution. Samples of the solution with the test compound were taken after 24 hours in at 37° C. (oven-controlled temperature).
UPLC-MS analysis of the samples taken at 24 hours was carried out on a Waters Acquity UPLC system consisting of an Acquity I-Class Sample Manager-FL, Acquity I-Class Binary Solvent Manager and an Acquity UPLC Column Manager. UV detection was afforded using an Acquity UPLC PDA detector (scanning from 210 to 400 nm), whilst mass detection was achieved using an Acquity QDa detector (mass scanning from 100-1250 Da; positive and negative modes simultaneously), and ELS detection was achieved using an Acquity UPLC ELS Detector. A Waters Acquity UPLC BEH C18 column (2.1 Å˜50 mm, […]) was used to separate the analytes. Samples were prepared by dissolution (with or without sonication) into 1 mL of 50% (v/v) MeCN in water. The resulting solutions were then filtered through a […] syringe filter before submitting for analysis. All of the solvents, including formic acid and 36% ammonia solution, were purchased as the HPLC grade.

Regarding `C=CCOC(=O)N1C(=O)/C(=C2\Nc3ccccc3C2=O)c2ccccc21`, under “FaSSGF 37° C. 24 h”, the “Fraction (percent) of indirubin” value was 0% and the “Fraction (percent) of starting material (SM)” value (“Fraction (percent) … (SM)” for short) is on record as 100%. Further, for the setting “FaSSIF 37° C. 24 h”, the “Fraction (percent) of indirubin” value was 2% and the “Fraction (percent) … (SM)” value is on record as 88%.
For `CCOC(=O)CCC(=O)N1C(=O)/C(=C2\Nc3ccccc3C2=O)c2ccccc21`, where the note is “FaSSGF 37° C. 24 h”, the “Fraction (percent) of indirubin” value is 0% and the “Fraction (percent) … (SM)” value is listed as 100%. Moreover, for the setting “FaSSIF 37° C. 24 h”, the “Fraction (percent) of indirubin” value is on record as 0% and the “Fraction (percent) … (SM)” value was 100%.
For the compound `CCN(CC)CN1C(=O)/C(=C2\Nc3ccccc3C2=O)c2ccccc21` [drawing 221], for the setting “FaSSGF 37° C. 24 h”, the “Fraction (percent) of indirubin” value is on record as 100% and the “Fraction (percent) … (SM)” value is recorded as 0%. Moreover, under “FaSSIF 37° C. 24 h”, the “Fraction (percent) of indirubin” value is 100% and the “Fraction (percent) … (SM)” value is recorded as 0%.
Take `CN1CCC(NC(=O)N2C(=O)/C(=C3\Nc4ccccc4C3=O)c3ccccc32)CC1=O` (stereo not shown): for the setting “FaSSGF 37° C. 24 h”, the “Fraction (percent) of indirubin” value is 0% and the “Fraction (percent) … (SM)” value is reported as 100%. For the setting “FaSSIF 37° C. 24 h”, the “Fraction (percent) of indirubin” value was 0% and the “Fraction (percent) … (SM)” value is given as 100%.
On to `O=C1/C(=C2/C(=O)N(C(=O)CCCN3CCOCC3)c3ccccc32)Nc2ccccc21`, for which, for the setting “FaSSGF 37° C. 24 h”, the “Fraction (percent) of indirubin” value is given as 0% and the “Fraction (percent) … (SM)” value is given as 100%. Moreover, for the setting “FaSSIF 37° C. 24 h”, the “Fraction (percent) of indirubin” value is on record as 0% and the “Fraction (percent) … (SM)” value is given as 100%.
As to `Cl.NCCNC(=O)N1C(=O)/C(=C2\Nc3ccccc3C2=O)c2ccccc21`, under “FaSSGF 37° C. 24 h”, the “Fraction (percent) of indirubin” value is on record as 0% and the “Fraction (percent) … (SM)” value is recorded as 100%. Where the note is “FaSSIF 37° C. 24 h”, the “Fraction (percent) of indirubin” value is 0% and the “Fraction (percent) … (SM)” value is 100%.
Turning to `CN(C)CCCNC(=O)N1C(=O)/C(=C2\Nc3ccccc3C2=O)c2ccccc21`, the “Fraction (percent) of indirubin” value is recorded as 0% (FaSSGF 37° C. 24 h) and 1% (FaSSIF 37° C. 24 h). Moreover, the “Fraction (percent) … (SM)” value by setting is: (FaSSGF 37° C. 24 h) 100%; (FaSSIF 37° C. 24 h) 94%.
Take `O=C1/C(=C2/C(=O)N(COS(=O)(=O)O)c3ccccc32)Nc2ccccc21` [drawing 224]: where the note is “FaSSIF 37° C. 24 h”, the “Fraction (percent) of indirubin” value is 100% and the “Fraction (percent) … (SM)” value is 0%.
In the case of `CS(=O)(=O)NCCNC(=O)N1C(=O)/C(=C2\Nc3ccccc3C2=O)c2ccccc21`, for the setting “FaSSGF 37° C. 24 h”, the “Fraction (percent) of indirubin” value was 0% and the “Fraction (percent) … (SM)” value is reported as 100%. Further, under “FaSSIF 37° C. 24 h”, the “Fraction (percent) of indirubin” value is 0% and the “Fraction (percent) … (SM)” value is on record as 100%.
